Each cell line was assayed with CCn1c(-c2nonc2N)nc2c(C#CC(C)(C)O)ncc(OC[C@H]3CCCNC3)c21 + CS(=O)(=O)CCNCc1ccc(-c2ccc3ncnc(Nc4ccc(OCc5cccc(F)c5)c(Cl)c4)c3c2)o1 [Lapatinib] (partner 2 µM) (assay: relative viability (nuclei count vs DMSO), 5 days (fraction); higher = more cells survive). Details: first compound 0.01 µM.
In short: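 Relative viability divides the nuclei count in treated wells by that in vehicle wells. Lung cancer cell lines were seeded in 1536-well plates, dosed by pin tool the next day, and fixed and stained after 5 days in one step with final 0.05% Triton X-100, 1% formaldehyde and 1 ug/ml Hoechst. Dosing was a single drug or a fixed anchor-drug dose plus five library-drug doses (not always all listed) in √10 steps, and values are medians of duplicate plates imaged at 4×.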

| Cell Line | relative viability |
| --- | --- |
| Calu-6 | 1.06 |
| HCC-366 | 0.967 |
| NCI-H1666 | 0.552 |
| NCI-H596 | 0.935 |
| LK-2 | 0.998 |
| NCI-H2087 | 0.965 |
| SK-MES-1 | 0.46 |
| H3255 | 0.259 |
| COR-L23 | 0.935 |
| COR-L 105 | 0.33 |
| IA-LM | 0.713 |
| LOU-NH91 | 0.802 |
| NCI-H2170 | 0.283 |
| NCI-H2405 | 1.11 |
| HOP-62 | 1.11 |
| HCC-44 | 0.93 |
| A549 | 0.93 |

| Cell Line | relative viability |
| --- | --- |
| LU99A | 0.874 |
| BEN | 0.608 |
| HARA | 0.718 |
| HCC-78 | 0.717 |
| NCI-H322M | 0.562 |
| NCI-H2009 | 0.974 |
| A-427 | 0.962 |
| NCI-H661 | 0.505 |
| NCI-H1734 | 1.01 |
| NCI-H460 | 0.949 |
| NCI-H2347 | 0.891 |
| SK-LU-1 | 1.02 |
| NCI-H1395 | 0.815 |
| 201T | 0.991 |
| NCI-H1915 | 0.981 |
| HCC-827 | 0.175 |
| LXF-289 | 0.921 |

Same assay, conditions: first compound 0.03162 µM

| Cell Line | relative viability |
| --- | --- |
| Calu-6 | 1.14 |
| HCC-366 | 1.02 |
| NCI-H1666 | 0.487 |
| NCI-H596 | 0.954 |
| LK-2 | 1.01 |
| NCI-H2087 | 0.999 |
| SK-MES-1 | 0.425 |
| H3255 | 0.202 |
| COR-L23 | 0.994 |
| COR-L 105 | 0.366 |
| IA-LM | 0.922 |
| LOU-NH91 | 0.681 |
| NCI-H2170 | 0.254 |
| NCI-H2405 | 1.06 |
| HOP-62 | 1.05 |
| HCC-44 | 0.975 |
| A549 | 0.99 |
| LU99A | 1.07 |

| Cell Line | relative viability |
| --- | --- |
| BEN | 0.717 |
| HARA | 0.7 |
| HCC-78 | 0.673 |
| NCI-H322M | 0.608 |
| LCLC-97TM1 | 0.854 |
| NCI-H2009 | 1.03 |
| A-427 | 1.05 |
| NCI-H661 | 0.539 |
| NCI-H1734 | 1.02 |
| NCI-H460 | 1.14 |
| NCI-H2347 | 0.934 |
| SK-LU-1 | 0.907 |
| NCI-H1395 | 0.842 |
| 201T | 1.06 |
| NCI-H1915 | 0.889 |
| HCC-827 | 0.219 |
| LXF-289 | 0.891 |

Same assay, conditions: first compound 0.1 µM

| Cell Line | relative viability |
| --- | --- |
| Calu-6 | 1.11 |
| HCC-366 | 0.953 |
| NCI-H1666 | 0.469 |
| NCI-H596 | 0.92 |
| LK-2 | 0.668 |
| NCI-H2087 | 0.899 |
| SK-MES-1 | 0.507 |
| H3255 | 0.217 |
| COR-L23 | 0.985 |
| COR-L 105 | 0.313 |
| IA-LM | 0.887 |
| LOU-NH91 | 0.717 |
| NCI-H2170 | 0.266 |
| HOP-62 | 1 |
| HCC-44 | 1.01 |
| A549 | 1.01 |
| LU99A | 0.869 |

| Cell Line | relative viability |
| --- | --- |
| BEN | 0.444 |
| HARA | 0.684 |
| HCC-78 | 0.903 |
| NCI-H322M | 0.394 |
| LCLC-97TM1 | 1.06 |
| NCI-H2009 | 1.05 |
| A-427 | 0.932 |
| NCI-H661 | 0.249 |
| NCI-H1734 | 0.896 |
| NCI-H460 | 1.02 |
| NCI-H2347 | 0.995 |
| SK-LU-1 | 0.85 |
| NCI-H1395 | 0.858 |
| 201T | 1.05 |
| NCI-H1915 | 0.956 |
| HCC-827 | 0.191 |
| LXF-289 | 0.934 |

Same assay, conditions: first compound 0.3162 µM

| Cell Line | relative viability |
| --- | --- |
| Calu-6 | 1.04 |
| HCC-366 | 1.03 |
| NCI-H1666 | 0.521 |
| NCI-H596 | 0.901 |
| LK-2 | 0.697 |
| NCI-H2087 | 1.07 |
| SK-MES-1 | 0.424 |
| H3255 | 0.276 |
| COR-L23 | 0.916 |
| COR-L 105 | 0.393 |
| IA-LM | 0.532 |
| LOU-NH91 | 0.652 |
| NCI-H2170 | 0.261 |
| NCI-H2405 | 1.01 |
| HOP-62 | 0.993 |
| HCC-44 | 0.989 |
| A549 | 0.842 |
| LU99A | 0.865 |

| Cell Line | relative viability |
| --- | --- |
| BEN | 0.637 |
| HARA | 0.554 |
| HCC-78 | 0.547 |
| NCI-H322M | 0.614 |
| LCLC-97TM1 | 0.663 |
| NCI-H2009 | 1.02 |
| A-427 | 1.03 |
| NCI-H661 | 0.502 |
| NCI-H1734 | 0.885 |
| NCI-H460 | 0.862 |
| NCI-H2347 | 0.897 |
| SK-LU-1 | 0.894 |
| NCI-H1395 | 0.769 |
| 201T | 1.05 |
| NCI-H1915 | 0.927 |
| HCC-827 | 0.173 |
| LXF-289 | 0.871 |

Same assay, conditions: first compound 1 µM

| Cell Line | relative viability |
| --- | --- |
| Calu-6 | 1.07 |
| HCC-366 | 1.09 |
| NCI-H1666 | 0.508 |
| NCI-H596 | 0.986 |
| LK-2 | 0.926 |
| NCI-H2087 | 1.03 |
| SK-MES-1 | 0.406 |
| H3255 | 0.228 |
| COR-L23 | 1.05 |
| COR-L 105 | 0.321 |
| IA-LM | 0.289 |
| LOU-NH91 | 0.618 |
| NCI-H2170 | 0.302 |
| NCI-H2405 | 1.02 |
| HOP-62 | 0.87 |
| HCC-44 | 1.09 |
| A549 | 0.781 |
| LU99A | 0.818 |
| BEN | 0.626 |

Source: the supplement of paper PMC10307832
